These results are taken from patent publication US20120289492A1, “METHODS OF TREATING MITOCHONDRIAL DISORDERS USING METALLOPORPHYRINS” (priority 2009, published 2012).

Data set [1] has as its system mitochondrial SOD activity. The data set can be described thus: SOD2 activity assay in forebrain mitochondrial fractions. The format is in vivo. The settings on record: treated Sod2−/− mice vs Sod2+/+ mice (1.56±0.17 units/mg protein).
For data set [2], the system named is forebrain of Sod2−/− mice. The data set can be described thus: Mitochondrial oxidative stress and bioenergetic indices in brain of Sod2−/− mice. It is filed as in vivo. As for the experimental part:
To determine whether AEOL11207 decreases mitochondrial dysfunction and corrects key bioenergetic parameters in Sod2−/− mice, activity was measured of the oxidant sensitive mitochondrial enzyme, aconitase and oxidant insensitive control, fumarase, ATP, 3-nitrotyrosine (3NT), a marker of oxidative damage to proteins, reduced coenzyme A (CoASH) which assesses the mitochondrial redox state and the activity of the sodium potassium ATPase (Na+-K+ ATPase). […] FIGS. 5A-5EC illustrate attenuation of aconitase inactivation (5A), ATP depletion (5B), 3NT formation ([…]), CoASH depletion (5D) and decreased Na+-K+ ATPase activity (5E) in Sod2−/− mice by AEOL11207 (5 mg/kg, s.c. beginning PND5, n=*p<0.05, #p<0.01).
Methods:3-nitrotyrosine (3-NT) measurement by HPLC 3-NT assay are performed with HPLC equipped electrochemical detector using methods as previously described in the literature. The potentials of the electrochemical detector are set at 180/240/350/500/600/670/810/830 mV. Analyte separation is conducted on a TOSOHAAS (Montgomeryville, Pa.) reverse-phase ODS 80-TM C-18 analytical column (4.6 mm×[…]; 5 µm particle size). A two-component gradient elution system was used with component A of the mobile phase composed of 50 mM sodium acetate pH 3.2, and component B composed of 50mM sodium acetate and 40% methanol. The following gradient elution profile was used: 0-25 min, 100% A; 25-35 min, linear ramp to 50% B; 35-40 min, isocratic 50% B; 40-45 min, linear ramp to 100% A; 45-50 min, isocratic 100% A at a flow rate of 0.6 ml/min. 3-NT was expressed as a ratio of 3-NT to tyrosine.
Measurement of AMP, ADP and ATP: The levels of AMP, ADP and ATP are quantified by HPLC-UV set at 258 nm following previous described. Analyte are separated by […], […] C-18 reversed-phase column. Mobile phase is composed of 50 mM KH2PO4, 10% methanol, 3 mM TBAS and adjusted to pH 6.0 and flow rate set at 0.8 ml/min.
Aconitase and fumarase activity assay: Aconitase and fumarase activity are measured in mitochondrial fraction which isolated as previously described. Briefly, brain tissues are homogenized with a Dounce tissue grinder (Wheaton, Millville, N.J.) in ice-cold mitochondrial isolation buffer (70 mM sucrose, 210 mM mannitol, 5 mM Tris HCl, 1 mM EDTA pH 7.4). After homogenization, the suspensions are centrifuged at 800 g for 10 minutes at 4° C., and the supernatants centrifuged at 17,000 g for 10 minutes at 4° C. The pellets are washed by mitochondrial isolation buffer and centrifuged at 17,000 g for 10 minutes at 4° C. again. Aconitase activity is measured spectrophotometrically following previous described by monitoring the formation of cis-aconitate from isocitrate at 240 nm in 50 mM Tris HCl, pH 7.4, containing 0.6 mM MnCl2 at 25° C. Fumarase activity is measured by monitoring the increase in absorbance at 240 nm at 25° C. in a 1 ml reaction mixture containing 30 mM potassium phosphate, pH 7.4, 0.1 mM L-malate.
Isolation mitochondrial fraction Mitochondria were isolated from the forebrain of mice according to the previously described methods (Liang & Patel, (2006) Free Radic Biol Med 40, 316-22). In brief, the forebrain was homogenized with a Dounce tissue grinder (Wheaton, Millville, N.J.) in mitochondrial isolation buffer (70 mM sucrose, 210 mM mannitol, 5 mM Tris HCl, 1 mM EDTA; pH 7.4). The suspensions centrifuged at 800 g 4° C. for 10 min. The supernatants were centrifuged at 13000 g 4° C. for 10 min., pellets washed with mitochondrial isolation buffer and centrifuged at 13000 g 4° C. for 10 min. to obtain crude mitochondrial fractions. The purity of mitochondrial fractions has been confined by immunoblot analysis of cytochrome c oxidase (COX) (EC1.9.3.1) subunit IV and lactate dehydrogenase (LDH) (EC 1.1.1.27) in mitochondrial and cytosolic fractions. There is no mitochondria contamination in cytosolic fraction and about 5-10% cytosol contamination in mitochondrial fraction (Liang & Patel, (2006) Free Radic Biol Med 40, 316-22). […]

The next data set relates to mouse lymphoma. The data set can be described thus: Mouse lymphoma test (mutagenicity). The format is cell-based. An excerpt: Safety profile: A prototypical metalloporphyrin (AEOL10150; FIG. 1) has completed phase 1 trials in amyotrophic lateral sclerosis patients. Extensive safety studies of this compound have been completed in mice, monkeys and rats. […] Safety studies for the structurally related compound, AEOL11207 need to be completed once its efficacy is established in animal studies.

Setting [3] is: Sod2−/− mice, 5 mg/kg s.c. from PND5.

“Also recorded” adds a separate entry of the source.

As to `COC(=O)c1c2nc(c(C(F)(F)F)c3ccc([n-]3)c(C(=O)OC)c3nc(c(C(F)(F)F)c4ccc1[n-]4)C=C3)C=C2.[Cl-].[Mn+3]` [AEOL11207], in data set [1], the “Cyanide insensitive SOD activity compared to Sod2+/+ mice” value is listed as around 40%. For the same compound, in data set [2] (setting [3]), the “decreased CoASH levels” value is reported as “significantly attenuated” and the “increase in 3-nitrotyrosine (3NT) formation” value is “significantly attenuated”. The “attenuation of the depletion of ATP” value in data set [2] (forebrain homogenates of Sod2−/− mice, 15-16 days old) was 50%. In addition, the “decreased Na+-K+ ATPase activity” value in data set [2] (forebrain homogenates, Sod2−/− mice, 5 mg/kg s.c. from PND5, 5 mg/kg) is on record as “significantly attenuated; also recorded: significantly restored”. The “decrease in ATP levels (ATP depletion)” value in data set [2] (forebrain, Sod2−/− mice, 5 mg/kg s.c. from PND5) was “significantly attenuated”. Also, the “decrease in aconitase activity (aconitase inactivation)” value in data set [2] (mitochondrial fractions, Sod2−/− mice, 5 mg/kg s.c. from PND5) was “significantly attenuated”. The “mutagenicity, mouse lymphoma test” value in the data set on mouse lymphoma was “negative”.
